Results as given in patent publication US11981658B2, “Substituted aminopyridine compounds as EGFR inhibitors” (YUHAN CORPORATION, priority 2021, dated 2024).
Where two headings read alike, the source gives them in different places.

How the values were obtained:
EGFR Del19/C797S = EGFR Del19/C797S (Homo sapiens, UniProt P00533, C797S/DEL746-750); assay: Biochemical EGFR kinase inhibition assay (Lance Ultra TR-FRET), double mutant del19/C797S
Method: (§1) Biochemical EGFR kinase assays were conducted using Lance Ultra time-resolved fluorescence resonance energy transfer (TR-FRET) technology from Perkin-Elmer. Compounds of the invention were initially diluted to 20 mM in 100% DMSO for storage and made into kinase buffer solution to create a compound concentration ranging from 0.003 μM and 10 μM.
(§2) Each kinase reactions were incubated at room temperature for 1 hour and then stopped by the addition of 4 μL of stop solution (10 mM EDTA). The specific Europium-labeled-anti-phosphopeptide antibody (PerkinElmer, AD0069) diluted in LANCE detection buffer was then added to a final concentration of 2 nM. After 60 minutes incubation at room temperature the LANCE signal was measured on an EnVision Multilabel Reader (Perkin-Elmer). Excitation wavelength was set at 320 nm and emission monitored at 615 nm (donor) and 665 nm (acceptor). The IC50 values were determined using GraphPad prism software (GraphPad Software, Inc., San Diego, CA, USA).

EGFR L858R/T790M/C797S = EGFR L858R/T790M/C797S (Homo sapiens, UniProt P00533, C797S/L858R/T790M); assay: Biochemical EGFR kinase inhibition assay (Lance Ultra TR-FRET), triple mutant L858R/T790M/C797S
Method: as §1, §2

EGFR L858R/C797S = EGFR L858R/C797S (Homo sapiens, UniProt P00533, C797S/L858R); assay: Biochemical EGFR kinase inhibition assay (Lance Ultra TR-FRET), double mutant L858R/C797S
Method: as §1, §2

EGFR wildtype (WT) = EGFR wildtype (WT) (Homo sapiens, UniProt P00533); assay: Biochemical EGFR kinase inhibition assay (Lance Ultra TR-FRET), wildtype
Method: as §1, §2

EGFR Del19/T790M/C797S = EGFR Del19/T790M/C797S (Homo sapiens, UniProt P00533, C797S/DEL746-750/T790M); assay: Biochemical EGFR kinase inhibition assay (Lance Ultra TR-FRET), triple mutant del19/T790M/C797S
Method: as §1, §2

[1] = Km ATP, read-out: IC50 Del19/C797S (nM) Km ATP
[2] = Km ATP, read-out: IC50 L858R/T790M/C797S (nM) Km ATP
[3] = Km ATP, read-out: IC50 L858R/C797S (nM) Km ATP
[4] = Km ATP, read-out: IC50 WT (nM) Km ATP
[5] = Km ATP, read-out: IC50 Del19/T790M/C797S (nM) Km ATP
[6] = IC50 Del19/C797S (nM), 100 μM ATP
[7] = Km ATP, read-out: IC50 Del19/C797S (nM), Km ATP
[8] = IC50 L858R/T790M/C797S (nM), 100 μM ATP
[9] = Km ATP, read-out: IC50 L858R/T790M/C797S (nM), Km ATP
[10] = IC50 L858R/C797S (nM), 100 μM ATP
[11] = Km ATP, read-out: IC50 L858R/C797S (nM), Km ATP
[12] = Km ATP, read-out: IC50 WT (nM), Km ATP
[13] = IC50 Del19/T790M/C797S (nM), 100 μM ATP
[14] = Km ATP, read-out: IC50 Del19/T790M/C797S (nM), Km ATP
[15] = ATP at Km, read-out: IC50 Del19/C797S (nM), Km ATP
[16] = ATP at Km, read-out: IC50 L858R/T790M/C797S (nM), Km ATP
[17] = ATP at Km, read-out: IC50 L858R/C797S (nM), Km ATP
[18] = ATP at Km, read-out: IC50 WT (nM), Km ATP
[19] = ATP at Km, read-out: IC50 Del19/T790M/C797S (nM), Km ATP

Chain of EGFR Del19/C797S (P00533 with tags, fused parts or gaps DEL746-750/C797S): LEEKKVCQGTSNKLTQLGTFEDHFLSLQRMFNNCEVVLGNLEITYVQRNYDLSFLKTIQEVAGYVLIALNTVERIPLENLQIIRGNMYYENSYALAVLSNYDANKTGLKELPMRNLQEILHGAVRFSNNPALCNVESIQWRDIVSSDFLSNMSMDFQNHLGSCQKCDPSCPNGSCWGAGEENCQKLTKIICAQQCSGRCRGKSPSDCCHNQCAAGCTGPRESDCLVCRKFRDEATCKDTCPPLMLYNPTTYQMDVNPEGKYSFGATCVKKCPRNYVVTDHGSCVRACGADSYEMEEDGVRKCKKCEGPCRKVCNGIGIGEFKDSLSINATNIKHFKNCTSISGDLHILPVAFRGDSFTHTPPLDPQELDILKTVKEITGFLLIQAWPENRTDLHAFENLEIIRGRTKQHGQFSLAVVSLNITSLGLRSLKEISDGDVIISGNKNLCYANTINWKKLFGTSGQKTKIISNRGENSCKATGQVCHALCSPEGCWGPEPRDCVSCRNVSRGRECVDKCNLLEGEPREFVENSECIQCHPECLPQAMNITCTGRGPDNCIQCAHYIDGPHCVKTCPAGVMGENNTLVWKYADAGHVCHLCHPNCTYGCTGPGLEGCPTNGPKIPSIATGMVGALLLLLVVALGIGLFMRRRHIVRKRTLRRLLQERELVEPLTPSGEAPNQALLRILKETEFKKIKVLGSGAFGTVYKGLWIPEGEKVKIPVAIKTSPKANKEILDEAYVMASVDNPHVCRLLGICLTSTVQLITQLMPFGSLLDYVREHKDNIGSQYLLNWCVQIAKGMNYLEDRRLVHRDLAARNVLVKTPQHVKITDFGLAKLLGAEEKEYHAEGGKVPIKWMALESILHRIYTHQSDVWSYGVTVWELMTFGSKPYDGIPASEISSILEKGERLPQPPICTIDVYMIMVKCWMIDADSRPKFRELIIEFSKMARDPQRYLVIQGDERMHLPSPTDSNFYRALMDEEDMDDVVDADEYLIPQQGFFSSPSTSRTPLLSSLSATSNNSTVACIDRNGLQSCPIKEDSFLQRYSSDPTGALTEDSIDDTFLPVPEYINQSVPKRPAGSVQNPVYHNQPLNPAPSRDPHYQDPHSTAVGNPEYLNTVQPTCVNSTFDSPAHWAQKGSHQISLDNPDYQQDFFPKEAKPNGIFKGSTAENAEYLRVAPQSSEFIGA
Chain of EGFR Del19/T790M/C797S (P00533 with tags, fused parts or gaps DEL746-750/T790M/C797S): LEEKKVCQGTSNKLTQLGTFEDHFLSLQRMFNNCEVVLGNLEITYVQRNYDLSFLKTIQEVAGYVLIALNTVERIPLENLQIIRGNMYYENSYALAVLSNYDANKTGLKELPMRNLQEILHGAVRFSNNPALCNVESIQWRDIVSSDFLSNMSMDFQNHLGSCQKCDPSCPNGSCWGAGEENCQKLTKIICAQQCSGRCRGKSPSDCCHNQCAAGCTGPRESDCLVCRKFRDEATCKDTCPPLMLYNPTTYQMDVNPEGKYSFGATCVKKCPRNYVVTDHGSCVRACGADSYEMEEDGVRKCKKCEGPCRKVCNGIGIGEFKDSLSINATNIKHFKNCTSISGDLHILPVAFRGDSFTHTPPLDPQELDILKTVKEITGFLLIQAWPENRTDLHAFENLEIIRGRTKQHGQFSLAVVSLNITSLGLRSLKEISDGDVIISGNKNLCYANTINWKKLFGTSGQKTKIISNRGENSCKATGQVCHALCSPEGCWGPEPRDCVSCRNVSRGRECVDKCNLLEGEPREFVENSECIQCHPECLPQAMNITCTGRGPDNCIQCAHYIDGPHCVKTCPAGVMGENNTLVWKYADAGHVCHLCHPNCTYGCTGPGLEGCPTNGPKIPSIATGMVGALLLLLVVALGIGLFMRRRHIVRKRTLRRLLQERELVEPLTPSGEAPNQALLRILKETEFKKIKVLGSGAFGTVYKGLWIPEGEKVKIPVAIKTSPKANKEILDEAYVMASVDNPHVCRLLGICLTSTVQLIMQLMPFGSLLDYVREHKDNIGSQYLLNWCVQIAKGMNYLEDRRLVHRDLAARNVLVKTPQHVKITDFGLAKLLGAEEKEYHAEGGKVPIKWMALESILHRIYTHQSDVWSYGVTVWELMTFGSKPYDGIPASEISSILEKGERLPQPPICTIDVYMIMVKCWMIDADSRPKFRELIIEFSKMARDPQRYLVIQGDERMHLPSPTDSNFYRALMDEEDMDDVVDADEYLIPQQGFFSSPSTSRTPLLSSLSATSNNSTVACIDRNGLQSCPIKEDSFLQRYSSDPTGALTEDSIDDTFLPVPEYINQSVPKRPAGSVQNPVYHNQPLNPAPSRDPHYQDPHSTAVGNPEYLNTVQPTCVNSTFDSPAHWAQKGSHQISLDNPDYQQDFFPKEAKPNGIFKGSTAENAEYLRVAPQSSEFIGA
Chain of EGFR L858R/C797S (P00533 25-1210 C797S/L858R): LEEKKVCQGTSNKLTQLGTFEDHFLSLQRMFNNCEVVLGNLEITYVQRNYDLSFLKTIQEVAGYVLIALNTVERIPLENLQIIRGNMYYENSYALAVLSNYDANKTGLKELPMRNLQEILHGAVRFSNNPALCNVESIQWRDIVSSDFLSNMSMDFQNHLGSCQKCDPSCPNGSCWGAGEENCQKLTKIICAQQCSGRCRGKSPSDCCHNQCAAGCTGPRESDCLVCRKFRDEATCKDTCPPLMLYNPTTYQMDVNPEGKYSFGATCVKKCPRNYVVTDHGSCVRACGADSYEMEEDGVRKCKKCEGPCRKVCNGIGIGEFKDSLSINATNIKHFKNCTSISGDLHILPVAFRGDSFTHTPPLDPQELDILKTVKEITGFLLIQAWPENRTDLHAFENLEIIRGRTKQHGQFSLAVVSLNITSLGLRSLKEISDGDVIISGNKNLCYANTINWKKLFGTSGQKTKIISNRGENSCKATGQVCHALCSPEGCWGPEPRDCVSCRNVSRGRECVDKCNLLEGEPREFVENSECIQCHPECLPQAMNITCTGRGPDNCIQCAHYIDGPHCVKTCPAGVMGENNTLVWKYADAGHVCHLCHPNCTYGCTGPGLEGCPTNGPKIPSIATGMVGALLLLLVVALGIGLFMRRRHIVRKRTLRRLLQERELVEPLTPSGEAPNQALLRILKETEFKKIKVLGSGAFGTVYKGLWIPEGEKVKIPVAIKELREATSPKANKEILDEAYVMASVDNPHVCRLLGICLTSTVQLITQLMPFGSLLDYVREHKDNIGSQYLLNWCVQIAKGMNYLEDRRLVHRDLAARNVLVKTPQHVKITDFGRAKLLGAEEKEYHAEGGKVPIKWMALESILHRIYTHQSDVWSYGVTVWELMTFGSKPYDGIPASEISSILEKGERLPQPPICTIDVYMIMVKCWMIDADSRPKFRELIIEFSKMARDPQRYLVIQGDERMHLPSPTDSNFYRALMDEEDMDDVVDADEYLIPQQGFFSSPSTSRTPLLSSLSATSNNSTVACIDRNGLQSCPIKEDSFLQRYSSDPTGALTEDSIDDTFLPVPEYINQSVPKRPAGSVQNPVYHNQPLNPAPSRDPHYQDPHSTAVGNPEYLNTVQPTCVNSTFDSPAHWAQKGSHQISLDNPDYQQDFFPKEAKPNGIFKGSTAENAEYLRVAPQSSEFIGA
Chain of EGFR wildtype (WT) (P00533 25-1210): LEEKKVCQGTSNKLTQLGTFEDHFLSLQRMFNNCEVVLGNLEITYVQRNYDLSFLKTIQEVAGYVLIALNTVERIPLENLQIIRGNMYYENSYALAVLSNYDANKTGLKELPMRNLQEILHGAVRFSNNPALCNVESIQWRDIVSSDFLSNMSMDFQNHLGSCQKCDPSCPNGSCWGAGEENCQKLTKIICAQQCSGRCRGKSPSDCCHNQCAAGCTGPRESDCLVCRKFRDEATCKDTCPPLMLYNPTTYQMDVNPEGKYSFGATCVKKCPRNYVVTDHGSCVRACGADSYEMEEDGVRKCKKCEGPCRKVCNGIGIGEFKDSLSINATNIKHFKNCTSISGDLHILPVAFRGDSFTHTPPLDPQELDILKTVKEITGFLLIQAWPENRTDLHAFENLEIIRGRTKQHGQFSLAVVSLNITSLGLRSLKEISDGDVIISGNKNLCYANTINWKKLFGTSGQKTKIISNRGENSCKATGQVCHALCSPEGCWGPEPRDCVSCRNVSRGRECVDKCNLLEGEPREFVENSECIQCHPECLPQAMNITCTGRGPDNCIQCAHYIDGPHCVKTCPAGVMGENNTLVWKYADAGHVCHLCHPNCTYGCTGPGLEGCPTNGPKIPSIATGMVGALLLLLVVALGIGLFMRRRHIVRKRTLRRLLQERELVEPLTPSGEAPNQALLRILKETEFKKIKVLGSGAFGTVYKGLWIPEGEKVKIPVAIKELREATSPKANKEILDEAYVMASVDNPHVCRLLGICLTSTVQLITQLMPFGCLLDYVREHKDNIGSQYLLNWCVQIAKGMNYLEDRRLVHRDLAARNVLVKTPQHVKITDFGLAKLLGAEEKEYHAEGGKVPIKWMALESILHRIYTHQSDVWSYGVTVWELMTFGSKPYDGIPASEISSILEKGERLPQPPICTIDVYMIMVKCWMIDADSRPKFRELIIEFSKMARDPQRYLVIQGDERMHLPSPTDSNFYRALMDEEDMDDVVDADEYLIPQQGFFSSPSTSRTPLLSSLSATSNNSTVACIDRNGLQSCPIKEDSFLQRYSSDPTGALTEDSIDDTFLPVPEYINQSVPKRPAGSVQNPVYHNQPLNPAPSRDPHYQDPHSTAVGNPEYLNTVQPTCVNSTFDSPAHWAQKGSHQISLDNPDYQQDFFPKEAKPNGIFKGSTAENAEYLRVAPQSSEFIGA

Row | SMILES | IC50 (EGFR Del19/C797S; [1]) | IC50 (EGFR L858R/T790M/C797S; [2]) | IC50 (EGFR L858R/C797S; [3]) | IC50 (EGFR wildtype (WT); [4]) | IC50 (EGFR Del19/T790M/C797S; [5]) | IC50 (EGFR Del19/C797S; [6]) | IC50 (EGFR Del19/C797S; [7]) | IC50 (EGFR L858R/T790M/C797S; [8]) | IC50 (EGFR L858R/T790M/C797S; [9]) | IC50 (EGFR L858R/C797S; [10]) | IC50 (EGFR L858R/C797S; [11]) | IC50 (EGFR wildtype (WT); IC50 WT (nM), 100 μM ATP) | IC50 (EGFR wildtype (WT); [12]) | IC50 (EGFR Del19/T790M/C797S; [13]) | IC50 (EGFR Del19/T790M/C797S; [14]) | IC50 (EGFR Del19/C797S; [15]) | IC50 (EGFR L858R/T790M/C797S; [16]) | IC50 (EGFR L858R/C797S; [17]) | IC50 (EGFR wildtype (WT); [18]) | IC50 (EGFR Del19/T790M/C797S; [19])
1 | CN(C)Cc1ccc(CNc2cc(Nc3ccnc(-c4cnn(S(=O)(=O)C5CC5)c4)n3)ncc2C#Cc2cnn(CC(F)F)c2)cc1 [Example 52, N^2-(2-(1-(Cyclopropylsulfonyl)-1H-pyrazol-4-yl)pyrimidin-4-yl)-5-((1-(2,2-difluoroethyl)-1H-pyrazol-4-yl)ethynyl)-N^4-(4-((dimethylamino)methyl)benzyl)pyridine-2,4-diamine] | 76.9 nM | 3.8 nM | 65.6 nM | 304 nM | 1.4 nM | – | – | – | – | – | – | – | – | – | – | – | – | – | – | –
2 | CC1(O)CCN(c2cc(Nc3ccnc(-c4cnn(S(=O)(=O)C5CC5)c4)n3)ncc2C#Cc2ncc(CN3CCOCC3)cn2)CC1 [Example 364, 1-(2-((2-(1-(Cyclopropylsulfonyl)-1H-pyrazol-4-yl)pyrimidin-4-yl)amino)-5-((5-(morpholinomethyl)pyrimidin-2-yl)ethynyl)pyridin-4-yl)-4-methylpiperidin-4-ol] | – | – | – | – | – | 1.3 nM | 1.4 nM | 0.6 nM | 0.1 nM | 12.9 nM | 2.1 nM | 2530 nM | 7.5 nM | 0.3 nM | 0.2 nM | – | – | – | – | –
3 | CC(O)CC#Cc1cnc(Nc2ccnc(-c3cnn(S(=O)(=O)C4CC4)c3)n2)cc1N1CCC(C)(CO)CC1 (centres unmarked) [Example 287, 5-(6-((2-(1-(Cyclopropylsulfonyl)-1H-pyrazol-4-yl)pyrimidin-4-yl)amino)-4-(4-(hydroxymethyl)-4-methylpiperidin-1-yl)pyridin-3-yl)pent-4-yn-2-ol] | – | – | – | – | – | 1.6 nM | – | 0.3 nM | – | 8.9 nM | – | 3190 nM | – | 0.1 nM | – | – | – | – | – | –
4 | CC1(CO)CCN(c2cc(Nc3ccnc(-c4cnn(S(=O)(=O)C5CC5)c4)n3)ncc2C#CC2(O)CCCCC2)CC1 [Example 175, 1-((6-((2-(1-(Cyclopropylsulfonyl)-1H-pyrazol-4-yl)pyrimidin-4-yl)amino)-4-(4-(hydroxymethyl)-4-methylpiperidin-1-yl)pyridin-3-yl)ethynyl)cyclohexan-1-ol] | – | – | – | – | – | 17.2 nM | – | 3.6 nM | – | 333 nM | – | > 10000 nM | – | 1.4 nM | – | 13.3 nM | 3.6 nM | 33.5 nM | 131 nM | 1.2 nM
5 | CC(C)Nc1cc(Nc2ccnc(-c3cnn(S(=O)(=O)C4CC4)c3)n2)ncc1C#Cc1cnn(CCF)c1 [Example 20, N^2-(2-(1-(Cyclopropylsulfonyl)-1H-pyrazol-4-yl)pyrimidin-4-yl)-5-((1-(2-fluoroethyl)-1H-pyrazol-4-yl)ethynyl)-N^4-isopropylpyridine-2,4-diamine] | 23.1 nM | 1.3 nM | 20.4 nM | 517 nM | 1.2 nM | 61.5 nM | – | 1.6 nM | – | – | – | > 10000 nM | – | 2.4 nM | – | – | – | – | – | –
6 | O=S(=O)(C1CC1)n1cc(-c2nccc(Nc3cc(N[C@H]4CC[C@@H](O)CC4)c(C#CC4C[C@@H]5CC[C@@H]4O5)cn3)n2)cn1 (some centres unmarked) [Example 427, (1s,4s)-4-((5-((7-Oxabicyclo[2.2.1]heptan-2-yl)ethynyl)-2-((2-(1-(cyclopropylsulfonyl)-1H-pyrazol-4-yl)pyrimidin-4-yl)amino)pyridin-4-yl)amino)cyclohexan-1-ol] | – | – | – | – | – | 2.4 nM | 2.7 nM | 0.3 nM | 0.2 nM | 80.1 nM | 3.2 nM | > 10000 nM | 12 nM | 0.2 nM | 0.3 nM | – | – | – | – | –
7 | CC1(CO)CCN(c2cc(Nc3ccnc(-c4cnn(S(=O)(=O)C5CC5)c4)n3)ncc2C#Cc2cnn(CC(F)(F)F)c2)CC1 [Example 348, (1-(2-((2-(1-(Cyclopropylsulfonyl)-1H-pyrazol-4-yl)pyrimidin-4-yl)amino)-5-((1-(2,2,2-trifluoroethyl)-1H-pyrazol-4-yl)ethynyl)pyridin-4-yl)-4-methylpiperidin-4-yl)methanol] | – | – | – | – | – | 4.9 nM | 4.7 nM | 0.8 nM | 1.4 nM | 14.3 nM | 1.1 nM | 651 nM | 14.1 nM | 2.1 nM | 4.2 nM | – | – | – | – | –
8 | COC1CCN(c2cc(Nc3ccnc(-c4cnn(S(=O)(=O)C5CC5)c4)n3)ncc2C#Cc2cnn(C3CCN(C(C)=O)CC3)c2)CC1 [Example 113, 1-(4-(4-((6-((2-(1-(Cyclopropylsulfonyl)-1H-pyrazol-4-yl)pyrimidin-4-yl)amino)-4-(4-methoxypiperidin-1-yl)pyridin-3-yl)ethynyl)-1H-pyrazol-1-yl)piperidin-1-yl)ethan-1-one] | 3.2 nM | 0.8 nM | 2.6 nM | 12 nM | 1.3 nM | 4 nM | – | 2.9 nM | – | 11.3 nM | – | 7550 nM | – | 1.3 nM | – | – | – | – | – | –
9 | O=S(=O)(C1CC1)n1cc(-c2nccc(Nc3cc(N4CCC(F)(CO)CC4)c(C#Cc4cnn(C(F)(F)F)c4)cn3)n2)cn1 [Example 338, (1-(2-((2-(1-(Cyclopropylsulfonyl)-1H-pyrazol-4-yl)pyrimidin-4-yl)amino)-5-((1-(trifluoromethyl)-1H-pyrazol-4-yl)ethynyl)pyridin-4-yl)-4-fluoropiperidin-4-yl)methanol] | – | – | – | – | – | 17.1 nM | 10.8 nM | 0.5 nM | 0.2 nM | 9580 nM | 42.8 nM | > 10000 nM | 149 nM | 0.4 nM | 0.3 nM | – | – | – | – | –
10 | O=S(=O)(C1CC1)n1cc(-c2nccc(Nc3cc(NC4CCC(O)CC4)c(C#CC4CCOC4)cn3)n2)cn1 (centres unmarked) [Example 198, (1s,4s)-4-((2-((2-(1-(Cyclopropylsulfonyl)-1H-pyrazol-4-yl)pyrimidin-4-yl)amino)-5-((tetrahydrofuran-3-yl)ethynyl)pyridin-4-yl)amino)cyclohexan-1-ol] | – | – | – | – | – | 3.6 nM | – | 0.6 nM | – | 50.8 nM | – | 5980 nM | – | 0.5 nM | – | 2.1 nM | 0.2 nM | 2.5 nM | 25.1 nM | 0.4 nM
